# Test results published in ChEMBL document CHEMBL4376889, “Discovery of a Brain-Penetrant ATP-Competitive Inhibitor of the Mechanistic Target of Rapamycin (mTOR) for CNS Disorders” (J Med Chem, 2020).
# pIC50: −log10 of the molar value. The source made the active and inactive calls. The calls are words filed in the database; no cut-off is given here.
# How the values were obtained:
# [1] = target: Phosphatidylinositol 4,5-bisphosphate 3-kinase catalytic subunit alpha isoform (Homo sapiens, UniProt P42336); assay: Inhibition of PI3Kalpha (unknown origin)
# [2] = target: Phosphatidylinositol 4,5-bisphosphate 3-kinase catalytic subunit gamma isoform (Homo sapiens, UniProt P48736); assay: Inhibition of PI3Kgamma (unknown origin)
# Cytochrome P450 3A4 = Cytochrome P450 3A4 (Homo sapiens, UniProt P08684); assay: Inhibition of CYP3A4 (unknown origin); format: ADME
# Cytochrome P450 2D6 = Cytochrome P450 2D6 (Homo sapiens, UniProt P10635); assay: Inhibition of CYP2D6 (unknown origin); format: ADME
# [3] = Solubility of compound at pH 6.8; format: physicochemical; details: buffer
# [4] = Stability in rat liver microsomes assessed as intrinsic clearance at 1 uM incubated for 30 mins by LC-MS/MS analysis; format: ADME, Microsome; details: read-out: CLH
# [5] = target: 1-phosphatidylinositol 3-phosphate 5-kinase (Homo sapiens) (UniProt Q9Y2I7); assay: Inhibition of wild-type human partial length PIKFYVE (F1512 to C2098 residues) expressed in mammalian expression system at 10000 nM by Kinomescan method
# [6] = target: Serine/threonine-protein kinase ATR (Homo sapiens, UniProt Q13535); assay: Inhibition of ATR (unknown origin) assessed as reduction in CHK1 phosphorylation by cell based assay
# [7] = Selectivity index, ratio of IC50 for ATR (unknown origin) to IC50 for inhibition of mTOR in mouse MEF cells harboring TSC1 deletion mutant; format: cell-based
# [8] = target: Serine-protein kinase ATM (Homo sapiens, UniProt Q13315); assay: Inhibition of ATM (unknown origin) assessed as reduction in CHK2 phosphorylation by cell based assay
# [9] = target: DNA-dependent protein kinase catalytic subunit (Homo sapiens, UniProt P78527); assay: Inhibition of DNAPK (unknown origin)
# [10] = Selectivity index, ratio of IC50 for DNAPK (unknown origin) to IC50 for inhibition of mTOR in mouse MEF cells harboring TSC1 deletion mutant; format: cell-based
# [11] = Cmax in C57BL/6 mouse at 1 mg/kg, iv or 5 mg/kg, po by HPLC analysis; format: ADME, organism-based; details: in vivo
# [12] = Tmax in C57BL/6 mouse at 1 mg/kg, iv or 5 mg/kg, po by HPLC analysis; format: ADME, organism-based; details: in vivo
# [13] = Oral bioavailability in C57BL/6 mouse at 5 mg/kg by HPLC analysis; format: ADME, organism-based; details: in vivo
# [14] = Volume of distribution at steady state in C57BL/6 mouse at 1 mg/kg, iv or 5 mg/kg, po by HPLC analysis; format: ADME, organism-based; details: in vivo, read-out: Vdss
# [15] = MRT (0 to t) in C57BL/6 mouse at 1 mg/kg, iv or 5 mg/kg, po by HPLC analysis; format: ADME, organism-based; details: in vivo
# [16] = Protein binding in C57BL/6 mouse plasma at 5 uM incubated for 4 hrs by LC-MS/MS analysis; format: ADME, cell-free; details: read-out: PPB
# [17] = Clearance in Sprague-Dawley rat at 1 mg/kg, iv or 3 mg/kg, po by HPLC analysis; format: ADME, organism-based; details: in vivo
# [18] = Half life in Sprague-Dawley rat at 1 mg/kg, iv or 3 mg/kg, po by HPLC analysis; format: ADME, organism-based; details: in vivo
# [19] = Ratio of drug concentration in brain to plasma in C57BL/6 mouse at 1 mg/kg, iv incubated for 2 hrs by LC-MS/MS analysis; format: ADME, organism-based; details: read-out: BPR
# [20] = target: Serine/threonine-protein kinase mTOR (Mus musculus) (UniProt Q9JLN9); assay: Inhibition of mTOR in mouse primary cortical neuron harboring TSC1 deletion mutant assessed as reduction in PS6 phosphorylation incubated for 4 hrs by Western blot analysis
# Cortical neurone = assay: Inhibition of overgrowth of mouse primary cortical neuron harboring TSC1 deletion mutant at 200 nM incubated for 7 days by immunofluorescence assay; format: functional, cell-based
# [21] = target: Serine/threonine-protein kinase mTOR (Rattus norvegicus, UniProt P42346, S2215Y); assay: Inhibition of mTOR S2215Y mutant in rat primary cortical neuron assessed as reduction in PS6 phosphorylation incubated for 4 hrs by Western blot analysis (reference value: 19 nM)
# [22] = target: Serine/threonine-protein kinase mTOR (Rattus norvegicus, UniProt P42346, L2427P); assay: Inhibition of mTOR L2427P mutant in rat primary cortical neuron assessed as reduction in PS6 phosphorylation incubated for 4 hrs by Western blot analysis (reference value: 19 nM)
# Mus musculus [23] = assay: In vivo inhibition of mTOR pathway in C57BL/6J mouse assessed as reduction in mTORC1/mTORC2 complex by measuring PS6 phosphorylation level at 1 to 10 mg/kg, po measured after 8 hrs by Western blot analysis; format: functional, organism-based
# Mus musculus [24] = assay: In vivo inhibition of mTOR pathway in C57BL/6J mouse assessed as reduction in mTORC1/mTORC2 complex by measuring AKT phosphorylation level at 1 to 10 mg/kg, po measured after 8 hrs by Western blot analysis; format: functional, organism-based
# Mus musculus [25] = assay: In vivo inhibition of mTOR pathway in C57BL/6J mouse assessed as reduction in mTORC1/mTORC2 complex by measuring AKT phosphorylation level at 1 to 10 mg/kg, po measured after 24 hrs by Western blot analysis; format: functional, organism-based
# [26] = Drug uptake in C57BL/6J mouse plasma at 1 mg/kg, po incubated for 3 hrs by LC-MS/MS analysis; format: ADME, organism-based
# [27] = Drug uptake in C57BL/6J mouse plasma at 3 mg/kg, po incubated for 3 hrs by LC-MS/MS analysis; format: ADME, organism-based
# [28] = Drug uptake in C57BL/6J mouse brain at 1 mg/kg, po incubated for 3 hrs by LC-MS/MS analysis; format: ADME, organism-based; details: read-out: Drug uptake
# [29] = Drug uptake in C57BL/6J mouse brain at 3 mg/kg, po incubated for 3 hrs by LC-MS/MS analysis; format: ADME, organism-based; details: read-out: Drug uptake
# [30] = Ratio of drug concentration in brain to plasma in C57BL/6J mouse at 1 mg/kg, po incubated for 3 hrs by LC-MS/MS analysis; format: ADME, organism-based; details: read-out: BPR
# [31] = Ratio of drug concentration in brain to plasma in C57BL/6J mouse at 10 mg/kg, po incubated for 3 hrs by LC-MS/MS analysis; format: ADME, organism-based; details: read-out: BPR
# Mus musculus [32] = assay: Protection against C57BL/6J mouse model of neuronal mTOR hyperactivity assessed as survival rate at 10 mg/kg, ip administered on postnatal day 22 daily and measured on postnatal day 36 (reference value: 48 %); format: functional
# Mus musculus [33] = assay: Protection against C57BL/6J mouse model of neuronal mTOR hyperactivity assessed as survival rate at 10 mg/kg, ip administered on postnatal day 22 daily and measured on postnatal day 52 (reference value: 48 %); format: functional
# Sequence of 1-phosphatidylinositol 3-phosphate 5-kinase (Homo sapiens) (Q9Y2I7 whole entry, the tested form may be a part): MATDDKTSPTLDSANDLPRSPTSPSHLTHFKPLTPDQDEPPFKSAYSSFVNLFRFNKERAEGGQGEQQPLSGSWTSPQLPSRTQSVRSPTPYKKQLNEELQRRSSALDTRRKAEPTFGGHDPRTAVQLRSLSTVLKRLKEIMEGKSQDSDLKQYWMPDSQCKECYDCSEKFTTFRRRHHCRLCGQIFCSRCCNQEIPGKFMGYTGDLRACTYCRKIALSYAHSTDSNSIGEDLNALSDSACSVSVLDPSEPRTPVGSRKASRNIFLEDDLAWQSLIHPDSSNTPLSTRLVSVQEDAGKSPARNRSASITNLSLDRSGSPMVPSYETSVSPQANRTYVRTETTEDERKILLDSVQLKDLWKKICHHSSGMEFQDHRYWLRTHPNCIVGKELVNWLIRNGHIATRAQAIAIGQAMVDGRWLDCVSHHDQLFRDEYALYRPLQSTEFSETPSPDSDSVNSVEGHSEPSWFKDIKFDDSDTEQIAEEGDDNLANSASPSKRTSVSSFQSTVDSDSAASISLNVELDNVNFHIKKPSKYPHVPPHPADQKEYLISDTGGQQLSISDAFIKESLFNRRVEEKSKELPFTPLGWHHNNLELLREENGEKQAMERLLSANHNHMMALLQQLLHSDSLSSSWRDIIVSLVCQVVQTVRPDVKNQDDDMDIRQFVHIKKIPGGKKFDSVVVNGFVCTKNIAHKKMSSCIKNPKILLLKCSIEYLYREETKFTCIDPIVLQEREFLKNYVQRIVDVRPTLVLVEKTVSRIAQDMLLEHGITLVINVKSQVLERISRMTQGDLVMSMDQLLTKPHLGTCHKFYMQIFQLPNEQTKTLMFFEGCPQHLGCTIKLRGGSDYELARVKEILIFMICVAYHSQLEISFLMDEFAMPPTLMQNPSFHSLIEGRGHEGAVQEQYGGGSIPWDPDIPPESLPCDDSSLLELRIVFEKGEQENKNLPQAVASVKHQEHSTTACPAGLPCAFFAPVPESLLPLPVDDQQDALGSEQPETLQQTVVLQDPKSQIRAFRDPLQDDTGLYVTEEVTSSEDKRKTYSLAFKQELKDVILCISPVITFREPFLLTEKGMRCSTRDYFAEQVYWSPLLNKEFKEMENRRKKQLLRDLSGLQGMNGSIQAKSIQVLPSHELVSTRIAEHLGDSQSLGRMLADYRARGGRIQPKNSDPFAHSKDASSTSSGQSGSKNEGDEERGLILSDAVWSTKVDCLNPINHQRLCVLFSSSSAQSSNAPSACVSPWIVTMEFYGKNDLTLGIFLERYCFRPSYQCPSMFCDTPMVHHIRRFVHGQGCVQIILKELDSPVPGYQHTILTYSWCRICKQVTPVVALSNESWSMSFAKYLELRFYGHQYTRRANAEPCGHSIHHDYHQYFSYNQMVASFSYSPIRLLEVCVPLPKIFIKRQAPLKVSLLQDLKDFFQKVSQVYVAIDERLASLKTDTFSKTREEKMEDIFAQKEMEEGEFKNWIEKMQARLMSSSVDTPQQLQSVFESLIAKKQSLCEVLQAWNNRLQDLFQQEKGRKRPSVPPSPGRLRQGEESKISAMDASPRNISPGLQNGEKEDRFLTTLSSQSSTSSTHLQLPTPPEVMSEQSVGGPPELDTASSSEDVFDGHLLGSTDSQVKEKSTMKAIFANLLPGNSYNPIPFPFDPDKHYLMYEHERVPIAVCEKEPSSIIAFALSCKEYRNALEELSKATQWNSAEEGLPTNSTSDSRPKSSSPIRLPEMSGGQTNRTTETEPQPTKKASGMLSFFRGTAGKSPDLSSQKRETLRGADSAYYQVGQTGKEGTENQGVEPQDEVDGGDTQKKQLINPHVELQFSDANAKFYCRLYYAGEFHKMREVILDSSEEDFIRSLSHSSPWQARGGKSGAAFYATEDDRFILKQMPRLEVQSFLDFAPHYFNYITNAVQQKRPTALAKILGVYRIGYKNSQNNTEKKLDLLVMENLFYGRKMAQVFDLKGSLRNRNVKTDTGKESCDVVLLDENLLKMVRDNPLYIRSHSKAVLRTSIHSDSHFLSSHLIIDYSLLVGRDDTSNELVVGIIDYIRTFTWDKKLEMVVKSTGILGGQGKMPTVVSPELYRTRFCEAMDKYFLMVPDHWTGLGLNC
# Sequence of Serine/threonine-protein kinase mTOR (Rattus norvegicus, UniProt P42346, S2215Y) (P42346 whole entry S2215Y, looked up): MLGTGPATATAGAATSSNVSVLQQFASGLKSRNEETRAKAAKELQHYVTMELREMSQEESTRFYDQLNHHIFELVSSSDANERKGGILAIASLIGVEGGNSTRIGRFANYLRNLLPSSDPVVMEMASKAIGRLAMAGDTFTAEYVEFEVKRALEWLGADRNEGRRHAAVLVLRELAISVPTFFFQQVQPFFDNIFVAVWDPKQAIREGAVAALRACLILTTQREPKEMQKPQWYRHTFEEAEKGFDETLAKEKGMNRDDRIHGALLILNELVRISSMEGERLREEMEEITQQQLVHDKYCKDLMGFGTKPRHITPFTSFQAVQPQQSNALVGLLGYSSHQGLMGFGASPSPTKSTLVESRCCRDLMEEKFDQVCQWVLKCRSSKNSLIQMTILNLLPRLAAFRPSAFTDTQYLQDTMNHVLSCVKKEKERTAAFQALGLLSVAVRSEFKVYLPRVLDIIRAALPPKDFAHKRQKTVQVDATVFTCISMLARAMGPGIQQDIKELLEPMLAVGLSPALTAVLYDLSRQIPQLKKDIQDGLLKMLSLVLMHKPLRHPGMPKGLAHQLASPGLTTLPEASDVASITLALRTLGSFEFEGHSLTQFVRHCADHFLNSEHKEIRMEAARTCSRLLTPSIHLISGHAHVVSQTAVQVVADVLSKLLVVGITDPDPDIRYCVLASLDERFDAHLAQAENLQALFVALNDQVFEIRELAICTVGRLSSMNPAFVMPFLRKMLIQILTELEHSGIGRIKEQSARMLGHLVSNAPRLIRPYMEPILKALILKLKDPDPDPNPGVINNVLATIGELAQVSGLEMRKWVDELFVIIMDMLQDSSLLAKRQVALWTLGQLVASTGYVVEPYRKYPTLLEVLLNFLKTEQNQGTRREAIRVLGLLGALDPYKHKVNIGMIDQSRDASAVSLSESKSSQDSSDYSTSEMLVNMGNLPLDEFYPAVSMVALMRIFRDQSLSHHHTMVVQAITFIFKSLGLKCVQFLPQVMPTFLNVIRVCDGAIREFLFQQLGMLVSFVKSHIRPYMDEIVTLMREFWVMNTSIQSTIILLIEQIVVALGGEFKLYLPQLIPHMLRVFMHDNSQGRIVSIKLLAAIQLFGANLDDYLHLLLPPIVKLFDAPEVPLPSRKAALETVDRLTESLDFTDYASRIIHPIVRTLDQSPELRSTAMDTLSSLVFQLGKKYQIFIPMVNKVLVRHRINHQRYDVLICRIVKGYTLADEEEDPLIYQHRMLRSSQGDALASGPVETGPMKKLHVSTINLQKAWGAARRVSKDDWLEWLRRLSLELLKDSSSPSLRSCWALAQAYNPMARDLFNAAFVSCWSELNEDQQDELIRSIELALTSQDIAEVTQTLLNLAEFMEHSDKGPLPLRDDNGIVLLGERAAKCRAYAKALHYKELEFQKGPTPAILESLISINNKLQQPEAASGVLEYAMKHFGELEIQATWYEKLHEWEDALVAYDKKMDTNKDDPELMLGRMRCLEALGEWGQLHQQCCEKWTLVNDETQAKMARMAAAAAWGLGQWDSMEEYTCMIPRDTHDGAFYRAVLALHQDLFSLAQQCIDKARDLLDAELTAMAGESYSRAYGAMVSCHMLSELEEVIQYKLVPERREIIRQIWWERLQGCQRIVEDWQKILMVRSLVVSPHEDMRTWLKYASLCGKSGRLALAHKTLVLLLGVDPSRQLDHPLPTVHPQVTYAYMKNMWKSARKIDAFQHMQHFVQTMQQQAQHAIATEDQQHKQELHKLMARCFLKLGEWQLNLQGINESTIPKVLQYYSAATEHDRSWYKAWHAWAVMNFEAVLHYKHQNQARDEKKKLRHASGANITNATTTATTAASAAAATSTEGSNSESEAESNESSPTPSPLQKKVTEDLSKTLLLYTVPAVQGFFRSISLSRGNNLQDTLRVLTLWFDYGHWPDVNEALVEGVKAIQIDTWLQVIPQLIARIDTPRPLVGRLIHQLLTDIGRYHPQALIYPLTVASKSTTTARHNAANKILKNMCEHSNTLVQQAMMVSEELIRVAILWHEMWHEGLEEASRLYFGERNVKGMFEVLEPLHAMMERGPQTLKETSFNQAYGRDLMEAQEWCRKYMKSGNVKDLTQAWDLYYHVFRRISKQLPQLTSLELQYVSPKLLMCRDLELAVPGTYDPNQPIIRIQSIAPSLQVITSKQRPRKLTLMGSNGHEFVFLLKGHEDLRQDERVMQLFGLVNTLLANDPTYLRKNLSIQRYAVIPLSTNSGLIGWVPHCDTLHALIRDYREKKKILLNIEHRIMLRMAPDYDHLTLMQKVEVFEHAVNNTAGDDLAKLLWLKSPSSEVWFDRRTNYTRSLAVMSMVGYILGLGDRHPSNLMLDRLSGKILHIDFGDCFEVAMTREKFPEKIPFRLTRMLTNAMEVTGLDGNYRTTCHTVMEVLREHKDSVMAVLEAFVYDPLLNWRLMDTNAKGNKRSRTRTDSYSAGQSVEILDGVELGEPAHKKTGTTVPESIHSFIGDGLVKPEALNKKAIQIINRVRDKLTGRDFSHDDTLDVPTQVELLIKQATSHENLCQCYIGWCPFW
# Sequence of Cytochrome P450 3A4 (P08684 whole entry): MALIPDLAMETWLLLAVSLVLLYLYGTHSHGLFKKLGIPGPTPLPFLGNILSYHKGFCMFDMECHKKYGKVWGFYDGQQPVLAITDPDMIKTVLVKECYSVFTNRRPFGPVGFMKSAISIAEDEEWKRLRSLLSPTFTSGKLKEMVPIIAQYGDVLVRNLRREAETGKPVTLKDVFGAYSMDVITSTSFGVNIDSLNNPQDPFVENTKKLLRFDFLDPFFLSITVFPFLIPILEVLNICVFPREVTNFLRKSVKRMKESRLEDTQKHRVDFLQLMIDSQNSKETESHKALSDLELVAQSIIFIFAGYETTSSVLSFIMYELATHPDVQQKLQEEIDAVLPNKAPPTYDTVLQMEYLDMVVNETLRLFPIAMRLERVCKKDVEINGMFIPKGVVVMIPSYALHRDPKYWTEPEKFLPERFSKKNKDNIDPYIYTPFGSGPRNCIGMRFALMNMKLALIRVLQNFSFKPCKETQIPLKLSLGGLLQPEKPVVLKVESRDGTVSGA
structure (smiles),measurement,setting,value
C[C@@H]1COCCN1c1nc(N2CCOC[C@@H]2C)nc2sc(-c3cc[nH]n3)nc12,pIC50,[1],5.66
same,pIC50,[2],< 5.00
same,K,Cytochrome P450 3A4,0.006 min⁻¹
same,pIC50,Cytochrome P450 2D6,< 4.30
same,solubility,[3],120 µg/mL
same,microsomal CLint at 1 µM,[4],42 µL/min/mg
same,inhibition,[5],Active
same,pIC50,[6],6.40
same,Ratio IC50,[7],70
same,pIC50,[8],7.70
same,pIC50,[9],5.89
same,Ratio IC50,[10],230
same,Cmax,[11],2700 nM
same,Tmax,[12],1.3 h
same,bioavailability,[13],61%
same,Vd,[14],2.3 L/kg
same,MRT last,[15],2.6 h
same,"fraction unbound at 4 h, 5 µM",[16],< 0.01
same,clearance,[17],9.5 mL/min/kg
same,half-life,[18],3.7 h
same,Kp at 2 h,[19],1.2
same,inhibition,[20],Dose-dependent effect
same,inhibition,Cortical neurone,Active
same,pIC50,[21],7.85
same,pIC50,[22],7.62
same,inhibition,Mus musculus [23],Active
same,inhibition,Mus musculus [24],Active
same,inhibition,Mus musculus [25],inactive
same,concentration at 3 h,[26],826 nM
same,concentration at 3 h,[27],2210 nM
same,concentration at 3 h,[28],929 nM
same,concentration at 3 h,[29],2390 nM
same,Kp at 3 h,[30],1.1
same,Kp at 3 h,[31],1.3
same,Activity,Mus musculus [32],95%
same,Activity,Mus musculus [33],84%
